Results: patent US8048825B2, “Haloalkylsulfonanilide derivatives or salt thereof, herbicide comprising the derivatives as active ingredient, and use of the herbicide” (Nihon Nohyaku Co., Ltd., priority 2006, dated 2011)

Legend:
Format in all cases: in vivo
Lindernia procumbens [1] = assay: Herbicidal effect on paddy field weeds of post-emergence stage (Post), Test Example 2; details: one-leaf stage, 1000 g/ha as active ingredient, examined after 21 days
From the text: (§1) Criteria for herbicidal efficacy (growth inhibiting degree) and phytotoxicity. • 5 . . . 100% herbicidal effect, phytotoxicity. • 4 . . . 90%-99% herbicidal effect, phytotoxicity. • 3 . . . 70%-89% herbicidal effect, phytotoxicity. • 2 . . . 40%-69% herbicidal effect, phytotoxicity. • 1 . . . 1%-39% herbicidal effect, phytotoxicity. • 0 . . . 0% herbicidal effect, phytotoxicity.
(§2) 75 cm^2 plastic pots were filled with the soil (clay loam). Seeds of Scirpus juncoides and Echinochloa crus-galli, paddy weeds, were planted, and they were covered with 75 cm^3 of soil mixed with seeds of Lindernia procumbens and then filled with water depth of 5 cm and they were brought up in a greenhouse. When the test plants were at one-leaf stage, predetermined effective dosage (1000 g/ha as an active ingredient) of formulations comprising a compound of the present invention as an active ingredient was applied to the pot water. Then, they were brought up in a greenhouse and the herbicidal efficacy was examined after 21 days from the treatment by comparing with the result of an untreated group according to the criteria of Test Example 1. In the table, “-” means that the test was not performed.

Scirpus juncoides [2] = assay: as above; details: one-leaf stage, 1000 g/ha as active ingredient, examined after 21 days
From the text: as §1, §2

Lindernia procumbens [3] = assay: Herbicidal efficacy on paddy field weeds of pre-emergence stage (Pre), Test Example 1; details: 1000 g/ha as active ingredient, examined after 21 days
Procedure: (§3) 75 cm^2 plastic pots were filled with the soil (clay loam). Seeds of Scirpus juncoides, a paddy weed, were planted, and they were covered with 75 cm^3 of soil mixed with seeds of Lindernia procumbens and then filled with water depth of 5 cm. Next day, predetermined effective dosage (1000 g/ha as an active ingredient) of formulations comprising a compound of the present invention as an active ingredient which were prepared following Formulation Examples 1 to 4 was diluted with water and applied dropwise to the surface of the water. Then, they were brought up in a greenhouse and the herbicidal effect was examined after 21 days from the treatment by comparing with the result of an untreated group according to the following criteria. In the table, “-” means that the test was not performed.
as §1

Scirpus juncoides [4] = assay: as above; details: 1000 g/ha as active ingredient, examined after 21 days
Procedure: as §3, §1

Row | SMILES | Lindernia procumbens post (herbicidal effect) (Lindernia procumbens [1]) | Scirpus juncoides post (herbicidal effect) (Scirpus juncoides [2]) | Lindernia procumbens pre (herbicidal effect) (Lindernia procumbens [3]) | Scirpus juncoides pre (herbicidal effect) (Scirpus juncoides [4])
1 | CCOC(=O)N(c1ccccc1CN1CCC(C)(c2ccccc2Cl)OC1=O)S(=O)(=O)C(F)(F)F (stereo not drawn) [Compound 1-174] | 4 (90%-99% herbicidal effect, phytotoxicity) | 4 (90%-99% herbicidal effect, phytotoxicity) | 4 (90%-99% herbicidal effect, phytotoxicity) | 4 (90%-99% herbicidal effect, phytotoxicity)
2 | Cc1ccccc1C1(C)CCN(Cc2ccccc2NS(=O)(=O)C(F)(F)F)C(=O)O1 (stereo not drawn) [Compound 1-404] | 5 (100% herbicidal effect, phytotoxicity) | 4 (90%-99% herbicidal effect, phytotoxicity) | 5 (100% herbicidal effect, phytotoxicity) | 4 (90%-99% herbicidal effect, phytotoxicity)
3 | CC(C)(C)COC(=O)N(c1ccccc1CN1CCC(C)(C2(C)CC2)OC1=O)S(=O)(=O)C(F)(F)F (stereo not drawn) [Compound 1-377] | 5 (100% herbicidal effect, phytotoxicity) | 4 (90%-99% herbicidal effect, phytotoxicity) | 5 (100% herbicidal effect, phytotoxicity) | 4 (90%-99% herbicidal effect, phytotoxicity)
4 | CCOC(=O)N(c1ccccc1CN1CCC(c2ccccc2)(c2ccccc2)OC1=O)S(=O)(=O)C(F)(F)F [Compound 1-219] | 4 (90%-99% herbicidal effect, phytotoxicity) | 4 (90%-99% herbicidal effect, phytotoxicity) | 4 (90%-99% herbicidal effect, phytotoxicity) | 4 (90%-99% herbicidal effect, phytotoxicity)
5 | CCC1(CC)CCN(Cc2ccccc2N(C(=O)OCC(C)(C)C)S(=O)(=O)C(F)(F)F)C(=O)O1 [Compound 1-108] | 4 (90%-99% herbicidal effect, phytotoxicity) | 4 (90%-99% herbicidal effect, phytotoxicity) | 4 (90%-99% herbicidal effect, phytotoxicity) | 4 (90%-99% herbicidal effect, phytotoxicity)
6 | CCOC(=O)N(c1ccccc1CN1CCC(c2ccccc2F)OC1=O)S(=O)(=O)C(F)(F)F (stereo not drawn) [Compound 1-252] | 5 (100% herbicidal effect, phytotoxicity) | 4 (90%-99% herbicidal effect, phytotoxicity) | 5 (100% herbicidal effect, phytotoxicity) | 4 (90%-99% herbicidal effect, phytotoxicity)
7 | CC1(c2ccccc2Cl)CCN(Cc2ccccc2NS(=O)(=O)C(F)(F)F)C(=O)O1 (stereo not drawn) [Compound 1-172] | 4 (90%-99% herbicidal effect, phytotoxicity) | 4 (90%-99% herbicidal effect, phytotoxicity) | 4 (90%-99% herbicidal effect, phytotoxicity) | 4 (90%-99% herbicidal effect, phytotoxicity)
8 | CCOC(=O)N(c1ccccc1CN1CCC(CC)(CC(C)C)OC1=O)S(=O)(=O)C(F)(F)F (stereo not drawn) [Compound 1-419] | 5 (100% herbicidal effect, phytotoxicity) | 4 (90%-99% herbicidal effect, phytotoxicity) | 5 (100% herbicidal effect, phytotoxicity) | 5 (100% herbicidal effect, phytotoxicity)
9 | CCCOC(=O)N(c1ccccc1CN1CCC(CC)(C(F)(F)F)OC1=O)S(=O)(=O)C(F)(F)F (stereo not drawn) [Compound 1-94] | 5 (100% herbicidal effect, phytotoxicity) | 4 (90%-99% herbicidal effect, phytotoxicity) | 5 (100% herbicidal effect, phytotoxicity) | 5 (100% herbicidal effect, phytotoxicity)
10 | CCOC(=O)N(c1ccccc1CN1CCC(C)(c2ccccc2)OC1=O)S(=O)(=O)C(F)(F)F (stereo not drawn) [Compound 1-162] | 4 (90%-99% herbicidal effect, phytotoxicity) | 4 (90%-99% herbicidal effect, phytotoxicity) | 4 (90%-99% herbicidal effect, phytotoxicity) | 4 (90%-99% herbicidal effect, phytotoxicity)
11 | O=C1OC(c2ccc(Cl)cc2)(C2CC2)CCN1Cc1ccccc1NS(=O)(=O)C(F)(F)F (stereo not drawn) [Compound 1-195] | 4 (90%-99% herbicidal effect, phytotoxicity) | 4 (90%-99% herbicidal effect, phytotoxicity) | 4 (90%-99% herbicidal effect, phytotoxicity) | 4 (90%-99% herbicidal effect, phytotoxicity)
12 | O=C1OC(c2ccccc2)(C2CC2)CCN1Cc1ccccc1NS(=O)(=O)C(F)(F)F (stereo not drawn) [Compound 1-183] | 4 (90%-99% herbicidal effect, phytotoxicity) | 4 (90%-99% herbicidal effect, phytotoxicity) | 4 (90%-99% herbicidal effect, phytotoxicity) | 4 (90%-99% herbicidal effect, phytotoxicity)
13 | O=C1OC(c2ccccc2)(C2CCC2)CCN1Cc1ccccc1NS(=O)(=O)C(F)(F)F (stereo not drawn) [Compound 1-206] | 4 (90%-99% herbicidal effect, phytotoxicity) | 4 (90%-99% herbicidal effect, phytotoxicity) | 4 (90%-99% herbicidal effect, phytotoxicity) | 4 (90%-99% herbicidal effect, phytotoxicity)
14 | CCC1(CC(C)C)CCN(Cc2ccccc2N(C(=O)OCC(C)C)S(=O)(=O)C(F)(F)F)C(=O)O1 (stereo not drawn) [Compound 1-422] | 5 (100% herbicidal effect, phytotoxicity) | 4 (90%-99% herbicidal effect, phytotoxicity) | 5 (100% herbicidal effect, phytotoxicity) | 5 (100% herbicidal effect, phytotoxicity)
15 | COC(=O)N(c1ccccc1CN1CCC(C)(c2ccccc2F)OC1=O)S(=O)(=O)C(F)(F)F (racemic) [Compound 1-429] | 5 (100% herbicidal effect, phytotoxicity) | 4 (90%-99% herbicidal effect, phytotoxicity) | 5 (100% herbicidal effect, phytotoxicity) | 4 (90%-99% herbicidal effect, phytotoxicity)
16 | CCOC(=O)N(c1ccccc1CN1CCC(c2c(F)cccc2F)OC1=O)S(=O)(=O)C(F)(F)F (stereo not drawn) [Compound 1-351] | 5 (100% herbicidal effect, phytotoxicity) | 4 (90%-99% herbicidal effect, phytotoxicity) | 5 (100% herbicidal effect, phytotoxicity) | 4 (90%-99% herbicidal effect, phytotoxicity)
17 | O=C1OC(c2ccccc2C(F)(F)F)CCN1Cc1ccccc1NS(=O)(=O)C(F)(F)F (stereo not drawn) [Compound 1-294] | 5 (100% herbicidal effect, phytotoxicity) | 4 (90%-99% herbicidal effect, phytotoxicity) | 5 (100% herbicidal effect, phytotoxicity) | 4 (90%-99% herbicidal effect, phytotoxicity)
18 | Cc1cccc(C)c1C1CCN(Cc2ccccc2NS(=O)(=O)C(F)(F)F)C(=O)O1 (stereo not drawn) [Compound 1-360] | 5 (100% herbicidal effect, phytotoxicity) | 4 (90%-99% herbicidal effect, phytotoxicity) | 5 (100% herbicidal effect, phytotoxicity) | 5 (100% herbicidal effect, phytotoxicity)
